# From patent US20260297164A1, “ANTI-FIBROTIC PEPTIDES AND USES THEREOF” (Deackt, Inc., priority 2021, published 2026)
# System: TGF-β1-induced PI3K/Akt/mTOR, p62, IKK signaling in mouse lung fibroblasts
# Assay: Western immunoblot of signaling proteins in TGF-β1-stimulated mouse lung fibroblasts (SDC2-pep)
# Format: cell-based
# Conditions: wild type fibroblasts, TGF-β1 10 ng/ml, 24 h
# Experimental: FIG. 5. […] (A-C) Ptprj^fl/fl Col1a2^Cre-ER(T)+/0 mice (fibroblast-specific CD148 deficient) and Col1a2^Cre-ER(T)+/0 (WT) mice were exposed to BLM. SDC2 18-aa peptide (SDC2-pep, 0.5 mg/kg) was intranasally delivered into WT and Ptprj^fl/fl Col1a2^Cre-ER(T)+/0 mice 10 days after BLM injury. Treatments were repeated at day 12, 14, 16 and 18. (A) At 24 days after BLM exposure lungs were harvested and stained with Masson's trichrome (n=3 for saline and n=5 for BLM groups). (B) Hydroxyproline content was measured in the left lung of mice exposed to BLM (n=11) or saline (n=5). Gene expression of (C) Fn and Col1a1; and (D) connective tissue growth factor (Ctgf) in harvested lungs were measured using qPCR (n=5 for each condition). […] (E) Expression of p-AKT/Akt, p-mTOR/mTOR, p62/GAPDH p-IKKα/β/IKKα, α-SMA/GAPDH, and CD148/GAPDH was determined by Western immunoblotting (n=4), and corresponding densitometry (ImageJ software). […] (F) mRNA levels of Col1a1 and Fn were measured by qPCR (n=5 for each condition). […] Gel contractility was measured at 0, 12, and 24 h after TGF-β1 stimulation (n=6 for each condition). […] Total cell concentrations were measured in BAL fluid from Ptprj^fl/fl Col1a2^Cre-ER(T)+/0 mice and Col1a2-Cre (control) mice 21 days after BLM injury (n=5/group). […]
substance,measurement,value
TGF-β1,"expression of p-Akt, p-mTOR, p62, p-IKKα/β, and α-SMA",increased
